Assay results reported in US4822791A, “Pharmaceutical compositions of-2,2-1,1-[bis-2,2'-(3,1-benzoxazin-4-one)9 ethylenes” (priority 1984, dated 1989).
Where “and” joins values, the source holds several entries; their conditions need not be identical. Equal values may be shown once. One block for each compound: values may come before it.

How the values were obtained:
[1] = Acute toxicity LD50 in mice (Test Example 8); settings: mouse, in vivo, one week, Probit method
Protocol: (§1) ddy-Strain mice (male) and Wistar strain rats were used to obtain LD50 values.
(§2) According to the ordinary procedure, suspension or solution of test sample was administered to the animals. From the number of the died animals until one week after the administration, LD50 values were obtained by Probit method.

[2] = Acute toxicity LD50 in rats (Test Example 8); settings: rat, in vivo, po; one week; Probit method; read-out: LD50 value (mg/kg body weight) Rat p.o.
Protocol: as §1, §2

hyaluronidase [3] = biological target: T1, hyaluronidase (Bos taurus, UniProt Q2YDK3); experiment: Anti-hyaluronidase activity (modified Morgan-Elson method); type: biochemical; settings: hyaluronidase 340NF unit/ml; activating agent Compound 48/80 or CaCl2; read-out: IC50
T1 sequence (Q2YDK3 36-553): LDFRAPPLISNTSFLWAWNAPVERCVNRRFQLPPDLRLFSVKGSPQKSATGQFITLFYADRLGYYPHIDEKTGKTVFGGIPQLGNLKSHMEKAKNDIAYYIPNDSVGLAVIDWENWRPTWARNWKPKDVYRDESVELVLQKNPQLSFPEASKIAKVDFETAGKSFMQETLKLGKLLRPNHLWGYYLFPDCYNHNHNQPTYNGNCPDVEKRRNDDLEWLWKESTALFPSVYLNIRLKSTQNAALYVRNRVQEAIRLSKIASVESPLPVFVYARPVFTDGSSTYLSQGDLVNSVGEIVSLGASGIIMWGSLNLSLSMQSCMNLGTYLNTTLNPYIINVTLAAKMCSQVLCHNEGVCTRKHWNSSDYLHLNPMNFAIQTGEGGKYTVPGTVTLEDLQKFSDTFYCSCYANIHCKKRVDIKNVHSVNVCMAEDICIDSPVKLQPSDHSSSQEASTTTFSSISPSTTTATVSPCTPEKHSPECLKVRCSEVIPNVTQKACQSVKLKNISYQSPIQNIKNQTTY
Protocol: A buffer soluticn of hyaluronidase (0.1 ml) was taken in a test tube and 0.2 ml each of the buffer solution of various compounds in various concentrations was added, and the mixture was preincubated at 37° C. for 20 minutes. Then, an activating agent (Compound 48/80 or CaCl2) (0.2 ml) was added to make the total amount 0.5 ml, which was incubated at 37° C. for 20 minutes. Then, potassium hyaluronate buffer solution (0.5 ml) was added, and the mixture was incubated at 37° C. for 40 minutes. After cooling, the mixture was treated with aqueous solution of 0.4N NaOH (0.2 ml) and neutralized to stop the reaction. The resulting product was subjecred to measurement of OD585 by the modified Morgan-Elson Method. […] (The final ccncentration of hyaluronidase was 340NF unit/ml.) [formula]

[4] = system: experimental ulcer model (Shay); experiment: Anti-ulcer activity in experimental ulcer model (Shay); type: in vivo, Wistar strain male rats
Protocol: Using 5 eight-week old Wistar strain male rats of 1 group, the rats were previously fasted for […]. The compound of an amount proportionate to the body weight based on the body weight after fasting was administered intraduodenally or intraperitoneally.
Each test compound was evenly suspended or dissolved in an aqueous solution of 0.5% CMC ccntaining 0.1% Tween 80, and administered at the rate of 0.5 ml per 100 g of body weight of the animal. To the controls, only the solvent was administered.
Test was carried out in accordance with Shay's method. After 48 hours' fasting, 5 animals per group were subjected to laparotomy under ether anesthesia, the tract between pylorus of stomach and duodenum was ligated, and the solution of the compound was administered intraduodenally (id) or intraperitoneally (ip), followed by suturing the laparotomy part. Eight hours after administration of the compound liquid, each animal was sacrificed by ether anesthesia and stomach was removed. Then, evaluation on the ulcer condition on the inner surface of stomach, and determination of the amount of gastric juice, of acidity by alkali titration, and of pepsin titer based on substrate of hemoglovin were made on the stored gastric juice. With regard to the acidity, gastric juice amount, and pepsin titer, the results were shown in inhibition rate (%) based on the average value of the control groups.

[5] = system: mast cell in abdominal cavity; experiment: Release of histamine by antigen DNP-Ascaris, mast cell in abdominal cavity (Test Example 12); type: cell-based, rat; settings: Rattus norvegicus, Mast cell; 10^-3 M; read-out: Effect on release of histamine by antigen DNP-Ascaris, Mast cell in abdominal cavity (control 100)
Protocol: (§3) Collection of mast cells in abdominal cavity and thoracic cavity and sensitizing of cells were conducted in similar manners to those in Test Example 10, respectively.
(§4) (1) Preparation of DNP-Ascaris antiserum was conducted in manner similar to that in Test Example 6.
(§5) This is conducted in amanner similar to that in Test Example 10.
(§6) This is conducted in a manner similar to that in Test Example 10.

[6] = system: Mast cell in thoracic cavity; experiment: Release of histamine by antigen DNP-Ascaris, mast cell in thoracic cavity (Test Example 12); type: cell-based; settings: Rattus norvegicus, 10^-3 M, read-out: Effect on release of histamine by antigen DNP-Ascaris, Mast cell in thoracic cavity (control 100)
Protocol: as §3, §4, §5, §6

[7] = system: Mast cell in thoracic cavity; experiment: Release of histamine by dextran (T-500), mast cell in thoracic cavity (Test Example 12); type: cell-based, rat; settings: Rattus norvegicus, Mast cell, 0.25 h; 10^-3 M; read-out: Effect on release of histamine by dextran (T-500), Mast cell in thoracic cavity (control 100)
Protocol: as §3
(§7) The sample solution was treated with 105 microgramms/ml phosphatidylserin PBS solution (0.5 ml) and incubated at 37° C. for 30 minutes, followed by addition of 25 mg/ml dextran (T-500) PBS solution (0.5 ml) and further incubation for 15 minutes.
as §6

[8] = system: mast cell in abdominal cavity; experiment: Release of histamine by dextran (T-500), mast cell in abdominal cavity (Test Example 12); type: cell-based, rat; settings: Rattus norvegicus, Mast cell, 0.25 h, read-out: Effect on release of histamine by dextran (T-500), Mast cell in abdominal cavity (control 100)
Protocol: as §3, §7, §6

[9] = system: Mast cell in thoracic cavity; experiment: Histamine release by antigen DNP-Ascaris, mast cell in thoracic cavity (Test Example 10); type: cell-based; settings: Rattus norvegicus, 20 min, 10^-3 M, read-out: released amount of histamin, Mast cell in thoracic cavity (control shown as 100)
Protocol: (§8) Examination was made cn the activity of inhibition of histamine release from mast cell by antigen-antibody reaction.
(§9) Preparation of DNP-Ascaris antiserum was conducted in a manner similar to that in Test Example 6.
(§10) Heparin-containing PBS was injected into the abdominal cavity of rat which was sacrificed by bleeding, after which the abdomen was well massaged, and then peritoneal exudate was sampled. The same liquid was also injected into the thoracic cavity, and after shaking the breast for several minutes, the thoracic cavity liquid was sampled, which was purified by washing several times by centrifugation. The number of the mast cells contained in this liquid was measured and adjusted to a designated concentration. (Mast cells, 8.0×10^4 cells/ml).
To the cell suspension (4 ml, 9×10^5 cells/ml), anti-DNP-Ascaris rat serum (PCA titer, 32) (4 ml) was added, and the mixture was incubated in the presence of heparin at 37° C. for 2.5 hours. To the solution, 70 microgramms/ml phosphatidylserin PBS solution (0.5 ml) was added and the mixture was incubated at 37° C. for 12 minutes, after which 140 microgramms/ml antigen DNP-Ascaris PBS solution (0.5 ml) was added and the mixture was incubated further for 20 minutes. […]

[10] = system: mast cell in abdominal cavity; experiment: Histamine release by antigen DNP-Ascaris, mast cell in abdominal cavity (Test Example 10); type: cell-based, rat; settings: Rattus norvegicus, Mast cell, 20 min; 10^-3 M; read-out: released amount of histamin, Mast cell in abdominal cavity (control shown as 100)
Protocol: as §8, §9, §10
To the cell suspension (4 ml, 9×10^5 cells/ml), anti-DNP-Ascaris rat serum (PCA titer, 32) (4 ml) was added, and the mixture was incubated in the presence of heparin at 37° C. for 2.5 hours. To the solution, 70 microgramms/ml phosphatidylserin PBS solution (0.5 ml) was added and the mixture was incubated at 37° C. for 12 minutes, after which 140 microgramms/ml antigen DNP-Ascaris PBS solution (0.5 ml) was added and the mixture was incubated further for 20 minutes.
After completion of the reaction, the reaction liquid was centrifuged (500 G, 10 min.) to obtain supernatant solution, and histamin in the supernatant solution was subjected to fluorometry by orthophthalal aldehyde method. The released amount of histamin in the control was shown as 100.

[11] = system: passive cutaneous anaphylaxis (PCA); experiment: Anti-passive cutaneous anaphylaxis (PCA) activity in rats (Test Example 2); type: in vivo, Wistar strain rats; settings: for inhibition in vivo at 100 mg/kg: Rattus norvegicus, 100 mg/kg PO, N 10
Outline: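 Antiserum from Wistar rats sensitized with ovalbumin (alum plus B. pertussis adjuvant) was diluted 16- or 32-fold and injected into dorsal skin of naive rats, which were held 48 h. Compound was given orally 1 h before i.v. ovalbumin plus Evans blue.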

[12] = system: anaphylaxis reaction to inhalated antigen; experiment: Antigen inhalation test on passive sensitized guinea pig (experimental asthma model); type: in vivo; settings: 5 mg/kg iv
Protocol: The test compound and Tranilast were respectively suspended at the time of use in 5% gum arabic solution containing 0.1% Tween 80 at the rate of 40 mg/ml, and were perorally administered at the rate of 0.5 ml per 100 g body weight of the animal.
DSCG was dissolved at the time of use in physiological saline solultion for injection at the rate of 5.0 mg/ml, and was intravenously injected at the rate of 0.1 ml per 100 g body weight of the animal.
Anti-ovalbumin rabbit serum diluted with physiological saline solution for injection so as tc contain anti-ovalbumin rabbit antibody at the rate of 0.187 mg N/ml was intravenously administered to guinea pig at the rate of 0.1 ml per 100 g of body weight and it was passively sensitized.
Twenty-four hours later, the suspension of the compound prepared in (1) above was perorally or intravenously administered to the animal. The animal was put in the inhalation chamber one hour after the administration in case of the peroral administration and five minutes after the administration in case of the intravenous administration, and 2% physiological saline solution of antigen ovalbumin was inhaled by spraying. Over 10 minutes' period from the time immediately after the forced inhalation, the time until its fall attributed to anaphylaxis reaction was recorded, and the numbers of alive and dead animals after lapse of 10 minutes were also counted.

hyaluronidase [13] = settings: known from the literature; cited from earlier work
[14] = system: passive cutaneous anaphylaxis (PCA); experiment: Anti-passive cutaneous anaphylaxis activity (PCA) in rats (Test Example 9); type: in vivo; settings: Rattus norvegicus, po, 100 mg/kg, 10 animals
Protocol: Wistar strain rats were sensitized with ovalbumin using aluminium hydroxide gel and Bordetella Pertussis vaccine as adjuvants. Dilutions of antiserum (16-fold and 32-fold) obtained by collecting blood samples 14 days later were administered subcutaneously in the dorsal skin of the rats of the same strain at the rate of 0.1 ml per spot, and the rats were grown for 48 hours. One hour after peroral administration of the sample solution, a mixture of antigen ovalbumin and Evans-blue dye was administered to the tail venous of the animal according to the ordinary procedure. Thirty minutes later, the animals were sacrificed by exsanguination, and the areas of blue spots (long diameter×short diameter) eliciting on the portion of the antiserum injection at the dorsal skin were measured to obtain the rate of inhibition based on the average value shown by the control animals.
This test was conducted in a manner similar to that in Test Example 2, except that the dilutions of antiserum were 12- and 24-folds.

Structure (SMILES): COc1ccc(C=C(C(=O)Nc2ccccc2C(=O)O)C(=O)Nc2ccccc2C(=O)O)cc1OC [Compound 20, 2,2'-[[2-(3,4-dimethoxy)phenylmethylene-1,3-dioxo-1,3-propanediyl]diimino]bisbenzoic acid]
- LD50 at 168 h ([1]; iv, read-out: LD50 value (mg/kg body weight) Mouse i.v.): 225 mg/kg
- LD50 at 168 h ([1]; po, read-out: LD50 value (mg/kg body weight) Mouse p.o.): > 10000 mg/kg
- LD50 at 168 h [2]: > 10000 mg/kg
- IC50 (hyaluronidase [3]): 40 µM
- Inhibition % Gastric Acidity ([4]; id 100 mg/kg): 64.5%
- Inhibition % secretion amount of gastric juice ([4]; id 100 mg/kg): 28.1%
- Inhibition % total pepsin titer ([4]; id 100 mg/kg): 42.5%
- Inhibition % Gastric Acidity ([4]; id 200 mg/kg): 99.5%
- Inhibition % secretion amount of gastric juice ([4]; id 200 mg/kg): 59.0%
- Inhibition % total pepsin titer ([4]; id 200 mg/kg): 69.3%
- Inhibition % Gastric Acidity ([4]; ip 10 mg/kg): 52.3%
- Inhibition % secretion amount of gastric juice ([4]; ip 10 mg/kg): 26.3%
- Inhibition % total pepsin titer ([4]; ip 10 mg/kg): 31.4%
- Inhibition % Gastric Acidity ([4]; ip 50 mg/kg): 88.0%
- Inhibition % secretion amount of gastric juice ([4]; ip 50 mg/kg): 70.9%
- Inhibition % total pepsin titer ([4]; ip 50 mg/kg): 60.7%

- IC50 (hyaluronidase [3]): 15 µM
Structure (SMILES): COc1ccc(C=C(C(=O)Nc2cc(Cl)ccc2C(=O)O)C(=O)Nc2cc(Cl)ccc2C(=O)O)cc1OC [Compound 21]
- activity at 1000 µM [5]: 48.3%
- activity at 1000 µM [6]: 73%

Structure (SMILES): O=C(O)c1cc(=O)c2c(OCC(O)COc3cccc4oc(C(=O)O)cc(=O)c34)cccc2o1 [DSCG, disodium cromoglicate, reference compound]
- activity at 1000 µM [7]: 42.2%
- activity at 1000 µM ([8]; 10^-3 M): 60%
- activity at 100 µM ([8]; 10^-4 M): 52.9%
- activity at 1000 µM [9]: 105%
- activity at 1000 µM [10]: 76.8%
- inhibition in vivo at 100 mg/kg ([11]; read-out: Average Inhibition Rate (%) Antiserum Dilution: × 16): 0.1%
- inhibition in vivo at 100 mg/kg ([11]; read-out: Average Inhibition Rate (%) Antiserum Dilution: × 32): 0.3%
- anti-PCA activity by peroral administration (in words) ([11]; peroral): no activity
- Extended rate (%) [12]: 23.9%
- Average time for falling Mean ± S.E. ([12]; N 5): 192.5 ± 20.3 s
- Required time (sec.) for falling and Number of death (#), single animals ([12]; N 5, observed 10 minutes, # shows death): 142 s and 188 s and 199 s and 241 s and > 600 s
- effect on hyaluronidase activity (in words) (hyaluronidase [13]): inhibit hyaluronidase activity
- activity at 1000 µM [5]: 76.8%
- inhibition in vivo at 100 mg/kg ([14]; read-out: Inhibition, Anti-serum Dilution: × 12): 0%
- inhibition in vivo at 100 mg/kg ([14]; read-out: Inhibition, Anti-serum Dilution: × 24): 0%
- activity at 1000 µM [6]: 105%
